# In PubChem BioAssay (NCI):
#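 Compound exposure: 48 hours, 5 concentrations, 96-well plates. Here, GI50 denotes the concentration required for 50% inhibition of growth. The concentration for full growth arrest is given as TGI.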
# How the values were obtained:
# Test in all cases: DTP human tumour cell line panel, 48 h
# [1] = system: EKVX NSCLC
# [2] = system: SF-268 CNS
# [3] = system: HL-60(TB) leukemia
# [4] = system: SF-539 CNS
# [5] = system: T-47D breast
# [6] = system: KM12 colon
# [7] = system: ACHN renal
# [8] = system: CAKI-1 renal
# [9] = system: M19-MEL melanoma
# [10] = system: KM20L2 colon
# [11] = system: DMS 114 small cell lung
# [12] = system: SNB-78 CNS
Compound,TGI [1] [µM],TGI [2] [µM],TGI [3] [µM],TGI [4] [µM],TGI [5] [µM],TGI [6] [µM],TGI [7] [µM],TGI [8] [µM],GI50 [1] [µM],GI50 [2] [µM],GI50 [3] [µM],GI50 [4] [µM],GI50 [5] [µM],GI50 [6] [µM],GI50 [7] [µM],GI50 [8] [µM],TGI [9] [µM],TGI [10] [µM],TGI [11] [µM],TGI [12] [µM]
NNc1nnc(-c2nnc(NN)o2)o1,> 10,> 10,> 10,> 10,> 10,> 10,> 10,> 10,,,,,,,,,,,,
CC(=O)O[C@@H]1C[C@@]2(C)[C@@H]3CC=C4[C@@H](C[C@H](O)C(=O)C4(C)C)[C@]3(C)C(=O)C[C@]2(C)[C@H]1[C@@](C)(O)C(=O)/C=C/C(C)(C)OC(C)=O,26,> 41.9,> 20.1,12.6,> 67.8,39.2,3.44,0.397,,,,,,,,,,,,
FC(F)(F)c1cccc(-c2nn3ncccc3c2-c2ccnc(Nc3ccc4c(c3)OCCO4)n2)c1,> 25,> 25,> 25,> 25,> 25,> 25,> 25,> 25,13.9,19.4,11.9,> 25,7.37,14.1,6.42,7.66,,,,
COc1cc(C2(C)SCCCS2)cc(OC)c1OC,> 100,> 100,> 100,> 100,,> 100,> 100,> 100,,,,,,,,,> 100,> 100,> 100,
C[C@@H]1O[C@@H](O[C@@H]2[C@@H](O)[C@H](OCCc3ccc(O)c(O)c3)O[C@H](CO)[C@H]2OC(=O)/C=C/c2ccc(O)c(O)c2)[C@H](O)[C@H](OC2OC[C@](O)(CO)[C@H]2O)[C@H]1O (some centres undefined),> 100,53.4,> 100,> 100,> 100,> 100,> 100,42.5,63.9,,> 100,> 100,> 100,> 100,> 100,24.8,,,,
CCOC(=O)C1Nc2ccccc2[C@H]2OCC[C@@H]12 (some centres undefined),> 100,> 100,> 100,> 100,,> 100,> 100,> 100,,,,,,,,,> 100,> 100,,> 100
O=C(NCCNCCO)c1cccc2ccc(-c3ccccc3)nc12,19.7,19,> 100,13,,18.3,5.65,14.1,,,,,,,,,15.7,,19.8,29.1
COc1ccc(OC(=O)CC2Cc3cc(OC)c(OC)c(OC)c3-c3ccc(SC)c(=O)cc32)cc1 (centres undefined),> 100,> 100,2.35,0.54,,19.6,> 57.7,,,,,,,,,,> 100,,5.52,
C[CH2][Hg][S]c1ccccc1C(=O)O,5.39,3.18,1.18,3.32,2.79,13.3,2.83,1.47,2.05,1.68,0.314,1.7,0.522,3.82,1.49,0.316,,,,
CC(C)(C)c1cc2nc(c1)C(C(F)(F)F)(C(F)(F)F)OB(Br)OC2(C(F)(F)F)C(F)(F)F,0.727,17.8,,7.31,,11.3,,1.18,,,,,,,,,12.2,1.25,0.421,1.56
O=C(O)c1cc(CCc2cc(O)ccc2O)ccc1O,> 100,> 100,77.7,> 100,> 100,> 100,> 100,> 100,,,,,,,,,,,,
C=C1[C@@H](O)O[C@H]2[C@H]1C[C@H](OC(C)=O)[C@]13C(=O)O[C@H]4C[C@](C)(O)[C@H]([C@H]41)C31C=C(C)[C@]2(O)O1,0.0269,> 100,> 100,52,> 100,> 100,> 100,34.6,,34.5,61.8,21.1,> 100,36.8,49.8,0.516,,,,
c1cc(N2CCN(c3ccc(C4=NCCCN4)cc3)CC2)ccc1C1=NCCCN1,> 100,> 100,> 89,> 100,> 100,> 100,> 100,> 100,> 100,> 75.8,,> 74.5,> 100,> 42.1,> 69.9,> 100,,,,
CCCCNc1nc(NC2OCC(OC(C)=O)C(OC(C)=O)C2OC(C)=O)c(N=O)c(=O)n1C (centres undefined),> 10,> 10,> 10,> 10,> 10,> 10,> 10,> 10,,,,,,,,,,,,
COc1cccc(Oc2ccccc2NC(=O)CNC(=O)c2cccc3ccccc23)c1,> 25,> 25,0.237,1.07,17.6,19.6,> 25,> 25,1.28,0.547,0.081,0.225,0.138,0.19,0.398,0.917,,,,
C1CSCCSCCCSCCSCCCSCCSCCCSCCSC1,> 100,> 100,> 100,> 100,> 100,> 100,> 100,> 100,,,,,,,,,,,,
C=CCC1(C)CCCN(Cc2ccccc2)C1=O (centres undefined),> 10,> 10,> 10,> 10,> 10,> 10,> 10,> 10,,,,,,,,,,,,
O=C(CN1N=C(c2ccc(F)cc2)CCC1=O)Nc1nc2ccccc2s1,> 100,> 35.9,19,3.19,> 100,> 100,> 100,1.76,2.82,5.59,3.68,1.7,> 100,> 25.9,4.23,0.583,,,,
CC1=NN(c2ccccc2)C(=O)/C1=C\c1ccc([N+](=O)[O-])cc1,> 100,> 100,56.2,45.2,,64.3,> 100,73.6,,,,,,,,,,> 100,50,> 100
